Marks after values point to notes of the source that are not given here.

Consider 17 compounds from patent publication US9540361B2, “N-substituted azetidine derivatives” (Merck Sharp & Dohme B.V., priority 2010, dated 2017).

Data set [1] in a line: Rapid Rat PK after oral administration. The data set is classed as in vivo, rats (Rattus Norvegicus). The following applies: 20 umol/kg, plasma, oral 20 μmol/kg; for AUC: AUC(0-6h), read-out: RRat AUC; for Cmax: read-out: RRat Cmax. On the procedure:
In the context of the present invention with “orally bioavailable” is meant that compounds, when dosed orally to a rat show oral exposure as determined by quantification of compound plasma levels in that rat. Typically, compounds are dosed orally at 20 μmol/kg, as described in Example 14 hereinbelow. Oral exposure is determined by measuring plasma levels over the time range of 0-6 h after dosing and is expressed by AUC(0-6h).
This test was used to determine the pharmacokinetic parameters (AUC(0-6h), Cmax and Tmax) after oral administration of compounds in male (intact or castrated) or female (intact or ovariectomized) rats (Rattus Norvegicus).
After oral administration of a compound at 20 μmol/kg, blood was collected at various time points (0.5, 1, 2, 3, 4 and 6 hours after compound administration) via the tail vein. Plasma samples were pooled per time point, after which the concentration was determined in plasma by means of LC-MS. Pharmacokinetic parameters (AUC(0-6h), Cmax and Tmax) were derived from the obtained concentration versus time curves using the non-compartmental analysis module in Animals! or WinNonlin.

In data set [2] the target is T1, estrogen receptor alpha (Homo sapiens, UniProt P03372).
T1 construct: endogenous in cells; host or cells: T47D human breast cancer cells (ATCC)
T1 sequence (P03372 1-595): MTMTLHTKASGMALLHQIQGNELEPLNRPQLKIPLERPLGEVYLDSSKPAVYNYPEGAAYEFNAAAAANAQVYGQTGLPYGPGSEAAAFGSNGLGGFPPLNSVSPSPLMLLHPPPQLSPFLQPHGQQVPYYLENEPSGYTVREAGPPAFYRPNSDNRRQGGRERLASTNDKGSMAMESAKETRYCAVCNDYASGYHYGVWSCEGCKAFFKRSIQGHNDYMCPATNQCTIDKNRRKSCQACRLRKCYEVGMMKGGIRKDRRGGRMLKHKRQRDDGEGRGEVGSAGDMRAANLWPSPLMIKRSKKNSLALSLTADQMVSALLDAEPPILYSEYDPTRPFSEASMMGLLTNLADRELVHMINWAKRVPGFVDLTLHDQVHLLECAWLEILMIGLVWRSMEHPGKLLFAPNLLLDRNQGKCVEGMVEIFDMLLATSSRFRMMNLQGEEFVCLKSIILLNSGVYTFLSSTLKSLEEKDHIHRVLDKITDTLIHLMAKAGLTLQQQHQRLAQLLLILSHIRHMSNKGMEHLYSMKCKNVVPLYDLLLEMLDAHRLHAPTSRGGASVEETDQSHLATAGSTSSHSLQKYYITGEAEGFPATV
Description: ERα downregulation assay in T47D breast cancer cells (ERα ELISA). The format is cell-based. The following applies: 24 hours; for DR (%): downregulation of ERα relative to fulvestrant (100%), 1E-5 M, negative = upregulation. The gist of the method:
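T47D cells were treated with 1E-5 M test compound for 24 hours, then lysed in the well. ERα protein content was measured by ELISA. Efficacy is given as fraction of maximal response relative to fulvestrant, defined as 100% downregulation.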
For orientation: An ELISA detects its analyte on a solid surface through an enzyme-linked reagent.

Data set [3] deals with T2, human estrogen receptor α (hERα) (Homo sapiens, UniProt P03372).
T2 sequence (P03372 1-595): T1 sequence (P03372 1-595)
Description: antagonistic activity in CHO cells co-transfected with hERα, rat oxytocin promoter and luciferase reporter gene. The data set is classed as cell-based. The following applies: antagonism of 17β-estradiol-induced transactivation, CHO-hERα-RO-LUC; read-out: ERα pIC50 (converted). In outline: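 Recombinant CHO cells stably carrying hERα, rat oxytocin promoter and luciferase reporter, with receptor activated by 17β-estradiol. Antagonist efficacy given as maximal inhibition relative to that of the reference anti-estrogen ICI 164,384.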
On the technique in general: A reporter such as luciferase makes a cellular process visible.

The subject of data set [4] is MCF-7H cells. Description: 7-day in vitro proliferation assay in tamoxifen-resistant MCF-7H breast cancer cells (methyl-3H-thymidine incorporation). The data set is classed as cell-based, human. Particulars: for Efficacy (fractional to E2): fraction of maximal response, E2 = 1.00 per definition; for Efficacy (fractional to E2) / % E2: MCF-7H; for induce proliferation of MCF-7H breast cancer cells: potency range and efficacy in words; for % E2: relative potency to induce proliferation, normalized against E2 (=100 per definition); for Emax: Homo sapiens, MCF7, 168 h, efficacy (fraction of maximal response relative to E2) in MCF-7H proliferation, read-out: MCF7 ia. The method, then:
To what extent compounds are capable of stimulating proliferation in ER-positive, tamoxifen-resistant breast cancer cells is tested in a 7-day in vitro proliferation assay using MCF-7H cells. More specifically, this in vitro bioassay is used to determine the efficacy (fraction of maximal response), pEC50, and relative potency of the compound to induce proliferation by comparing the data for this compound with those of the reference compound 17β-estradiol (E2) in the same test.
A more detailed description of the method used is as follows.
Cell culture: The human epithelial breast cancer cell line MCF-7H (origin: Hubrecht Laboratory, Utrecht, The Netherlands) was routinely maintained in complete medium which is a 1:1 mixture of Ham's F12 medium and Dulbecco's Modified Eagle Medium (DMEM; Invitrogen, Carlsbad, USA) without phenol red and enriched with 5% fetal calf serum (FCS; Hyclone, Utah, USA), 100 μg/ml streptomycin and 100 units/ml penicillin adapted to contain:
Cells were grown in 80 cm^2 culture flasks (Nunc, Roskilde, Denmark) and kept in an atmosphere of 5% CO2-95% air at 37 degrees Celsius. Cells were subcultured when they reached about 80-90% confluence, resulting in one passage a week. Subculturing includes detaching the cells using trypsin/EDTA and diluting the cell suspension 10 times.
Methyl-^3H-thymidine incorporation assay: MCF-7H cells were starved overnight in assay medium containing 5% charcoal-treated (CT) bovine calf serum (BCS; Hyclone) instead of FCS and a final concentration of 1.0 μg/ml bovine insulin, the day before plating. Cells were plated in assay medium containing 5% CT BCS, in white 24-wells plates (Perkin Elmer, Shelton, USA), at a density of 7.5×10^3 cells per well, each well containing 630 μL assay medium. Cells were allowed to attach and spread for 24 h before stimulation with reference and/or test compound(s). After a stimulation period of 7 days, 0.25 μCi/well of methyl-^3H-thymidine (GE Healthcare Limited, Buckinghamshire, UK) was added per well. Cultures were maintained in an atmosphere of 5% CO2-95% air at 37 degrees Celsius. After overnight incubation, excess methyl-^3H-thymidine was aspirated and the cells were washed with phosphate-buffered saline (PBS). After 1 h of incubation with 1 ml scintillation fluid Microscint-20 (Perkin Elmer), radioactivity was measured in a Packard TOP-count NXT microplate scintillation counter (Perkin Elmer).
Background: Uptake of a labelled nucleoside into DNA is a usual measure of proliferation.

As for `CCCN1CC(Oc2ccc(C(=C(CC)c3ccccc3)c3cccc(O)c3)cc2)C1` (mixture of isomers) [compound 6w, (E/Z)-3-(2-phenyl-1-(4-(1-propylazetidin-3-yloxy)phenyl)but-1-enyl)phenol], in data set [1], the AUC (in general, the area under the concentration-time curve, a measure of exposure) is 1.07 µM·h and the Cmax – broadly, the maximum level reached in the sampled fluid or tissue – came out at 230 nM. The “DR (%)” value in data set [2] is 63%. The IC50 in data set [3] was 5.01 nM.
Consider `C[C@]12CC[C@@H]3c4ccc(O)cc4CC[C@H]3[C@@H]1CC[C@@H]2O` [E2, 17β-estradiol], for which, in data set [4], the “Efficacy (fractional to E2)” value is listed as 1.00 ^a; the “induce proliferation of MCF-7H breast cancer cells” value is “in the picomolar range and with full efficacy”; the “% E2” value is 100 ^a %.
As to `C#C[C@]1(O)CC[C@H]2[C@@H]3CCc4cc(O)ccc4[C@H]3CC[C@@]21C` [EE, Ethynyl Estradiol], in data set [4], the “Efficacy (fractional to E2)” value is 0.99; the “induce proliferation of MCF-7H breast cancer cells” value was “in the picomolar range and with full efficacy”; the “% E2” value is given as 137%.
Turning to `C[C@]12CC[C@@H]3c4ccc(O)cc4C[C@@H](CCCCCCCCC[S+]([O-])CCCC(F)(F)C(F)(F)F)[C@H]3[C@@H]1CC[C@@H]2O` (some centres unmarked) [Fulvestrant], in data set [2] (1E-5 M test compound, fulvestrant = 100 per definition, negative number = upregulation or stabilization), the “Downregulation (% of fulvestrant)” value is 100 ^a %. Moreover, in data set [4], the “Efficacy (fractional to E2)” value was 0.02 and the “% E2” value is 18.9%.
As for `O=C(c1ccc(OCCN2CCCCC2)cc1)c1c(-c2ccc(O)cc2)sc2cc(O)ccc12` [Raloxifene], in data set [4], the “Efficacy (fractional to E2)” value came to 0.33 and the “% E2” value is 21.1%.
Taken in the same sequence, the figures for `CC/C(=C(\c1ccccc1)c1ccc(OCCN(C)C)cc1)c1ccccc1` [Tamoxifen] were 0.58 and 0.008%.
`CCCN1CC(Oc2ccc(-c3c(-c4ccc(O)cc4)sc4cc(O)ccc34)cc2)C1.O=C(O)C(F)(F)F` [compound 6b, 2-(4-hydroxyphenyl)-3-(4-(1-propylazetidin-3-yloxy)phenyl)benzo[b]thiophen-6-ol 2,2,2-trifluoroacetate]: in data set [2], the “DR (%)” value was 53%. Moreover, in data set [3], the IC50 was 0.794 nM. Further, the Emax in data set [4] was found to be 10%.
In the same order, the values of `CCCN1CC(Oc2ccc(C(=O)c3c(-c4ccc(O)cc4)sc4cc(O)ccc34)cc2)C1.O=C(O)C(F)(F)F` [compound 6d, (6-hydroxy-2-(4-hydroxyphenyl)benzo[b]thiophen-3-yl)(4-(1-propylazetidin-3-yloxy)phenyl)methanone 2,2,2-trifluoroacetate] are 79%, 1.58 nM and 5%.
Consider `CCCN1CC(Oc2ccc(C(=O)c3c(-c4ccccc4Cl)noc3-c3ccc(O)cc3)cc2)C1.Cl` [compound 6m, (3-(2-chlorophenyl)-5-(4-hydroxyphenyl)isoxazol-4-yl)(4-(1-propylazetidin-3-yloxy)phenyl)methanone hydrochloride], for which the “DR (%)” value in data set [2] stood at 81%. In addition, the IC50 in data set [3] is 2 nM. Also, the Emax in data set [4] was determined as 7%.
Taken in the same sequence, the figures for `CCCN1CC(Oc2ccc([C@@H]3c4ccc(O)cc4CC[C@@H]3c3ccccc3)cc2)C1.Cl` [compound 6q, (5R,6S)-6-phenyl-5-(4-(1-propylazetidin-3-yloxy)phenyl)-5,6,7,8-tetrahydronaphthalen-2-ol hydrochloride] were 47%, 0.251 nM and 6%.
`Cl.Oc1ccc(-c2onc(-c3ccccc3Cl)c2-c2ccc(OC3CN(CCCF)C3)cc2)cc1` [compound 7aa, 4-(3-(2-chlorophenyl)-4-(4-(1-(3-fluoropropyl)azetidin-3-yloxy)phenyl)isoxazol-5-yl)phenol hydrochloride]: in data set [1], the AUC amounted to 3.58 µM·h and the Cmax stood at 990 nM. The “DR (%)” value in data set [2] stood at 93%. For the same compound, the IC50 in data set [3] is 1 nM.
For the compound `O=C(c1ccc(OC2CN(CCCF)C2)cc1)c1c(-c2ccccc2Cl)noc1-c1ccc(O)cc1` [compound 7ah], the “DR (%)” value in data set [2] is 94%. In data set [3], the IC50 is 2.51 nM. The Emax in data set [4] was 6%.
As to `CCCN1CC(Oc2ccc(C(=O)c3c(-c4c(F)cccc4F)noc3-c3ccc(O)cc3)cc2)C1.Cl` [compound 7ak, (3-(2,6-difluorophenyl)-5-(4-hydroxyphenyl)isoxazol-4-yl)(4-(1-propylazetidin-3-yloxy)phenyl)methanone hydrochloride], in data set [2], the “DR (%)” value is recorded as 93%. The IC50 in data set [3] is 3.16 nM. Also, the Emax in data set [4] amounted to 7%.
Regarding `CCCN1CC(Oc2ccc(C(O)c3c(-c4ccccc4Cl)noc3-c3ccc(O)cc3)cc2)C1` (centres unmarked) [compound 7av, 4-(3-(2-chlorophenyl)-4-(hydroxy(4-(1-propylazetidin-3-yloxy)phenyl)methyl)isoxazol-5-yl)phenol], in data set [1], the AUC is 3.8 µM·h and the Cmax came out at 990 nM. For the same compound, the “DR (%)” value in data set [2] worked out at 84%. In data set [3], the IC50 is 25.1 nM.
As for `CCCN1CC(Oc2ccc(C(=O)c3c(-c4ccc(O)cc4)noc3-c3ccccc3C)cc2)C1.Cl` [compound 7az, (3-(4-hydroxyphenyl)-5-o-tolylisoxazol-4-yl)(4-(1-propylazetidin-3-yloxy)-phenyl)methanone hydrochloride], in data set [2], the “DR (%)” value is recorded as 88%. In data set [3], the IC50 is 6.31 nM. In addition, the Emax in data set [4] came to 8%.
In the same order, the values of `CCCN1CC(Oc2ccc(C(=O)c3c(-c4ccccc4C)nsc3-c3ccc(O)cc3)cc2)C1.Cl` [compound 7bb, (5-(4-hydroxyphenyl)-3-o-tolylisothiazol-4-yl)(4-(1-propylazetidin-3-yloxy)-phenyl)methanone hydrochloride] are 90%, 2 nM and 3%.
For the compound `CC(C)CN1CC(Oc2ccc(-c3c(-c4ccccc4Cl)noc3-c3ccc(O)cc3)cc2)C1.Cl` [compound 7w, 4-(3-(2-chlorophenyl)-4-(4-(1-isobutylazetidin-3-yloxy)phenyl)isoxazol-5-yl)-phenol hydrochloride], in data set [1], the area under the curve (AUC) came out at 1.55 µM·h and the Cmax came out at 520 nM. The “DR (%)” value in data set [2] is 32%. Besides, in data set [3], the IC50 was 0.316 nM.
